According to ChEMBL document CHEMBL1201862, “PubChem BioAssay data set” (2004):
Calls of active or inactive are those of the source.

Columns and labels:
Prothrombin = Prothrombin (Homo sapiens, UniProt P00734); experiment: Thrombin 1536 HTS Dose Response Confirmation. [Related pubchem assays: 1046 (Thrombin 1536 HTS; hits were confirmed in this assay)]; format: functional
[1] = P. falciparum Dd2 growth inhibitors, dose response, SYBR Green, dry powder samples (AID 1159566); format: functional, cell-based;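 also: potency for growth inhibition with lower SYBR green DNA signal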
[2] = P. falciparum ATP4 D1247Y mutant growth inhibitors, dose response, NITD609-resistant line, SYBR Green, dry powder (AID 1159571); format: functional, cell-based;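 also: parasites synchronized at ring stage by sorbitol before testing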
[3] = P. falciparum 3D7-ScDHODH growth inhibitors, dose response, SYBR Green, dry powder samples (AID 1159570); format: functional, cell-based;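 also: parasite growth measured after 72 hours of compound exposure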
Bcl-2-like protein 10 = biological target: T1, Bcl-2-like protein 10 (Homo sapiens, UniProt Q9HD36); experiment: displacers of TR3 peptide from Bcl-B, primary screen, selectivity assay for Bfl-1 inhibitor project, biochemical, fluorescence polarization, FITC-TR3 peptide (AID 748);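 also: fluorescence polarization from a fluorescein-labelled TR3 peptide binding purified Bcl-B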
T1 sequence (Q9HD36 whole entry): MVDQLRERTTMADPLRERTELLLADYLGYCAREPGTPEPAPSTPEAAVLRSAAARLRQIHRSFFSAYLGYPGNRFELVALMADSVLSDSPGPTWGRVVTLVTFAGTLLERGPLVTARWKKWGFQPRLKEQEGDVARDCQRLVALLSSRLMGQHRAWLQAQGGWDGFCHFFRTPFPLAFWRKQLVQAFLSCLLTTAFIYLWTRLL

cells = format: functional
[4] = HepG2 cell cytotoxicity, dose response, cytotoxicity control for non-replicating M. tuberculosis project (AID 489018); format: functional; settings: Mycobacterium tuberculosis
[5] = biological target: T2, Histone-lysine N-methyltransferase NSD2 (Homo sapiens, UniProt O96028); format: biochemical
T2 sequence (O96028 whole entry): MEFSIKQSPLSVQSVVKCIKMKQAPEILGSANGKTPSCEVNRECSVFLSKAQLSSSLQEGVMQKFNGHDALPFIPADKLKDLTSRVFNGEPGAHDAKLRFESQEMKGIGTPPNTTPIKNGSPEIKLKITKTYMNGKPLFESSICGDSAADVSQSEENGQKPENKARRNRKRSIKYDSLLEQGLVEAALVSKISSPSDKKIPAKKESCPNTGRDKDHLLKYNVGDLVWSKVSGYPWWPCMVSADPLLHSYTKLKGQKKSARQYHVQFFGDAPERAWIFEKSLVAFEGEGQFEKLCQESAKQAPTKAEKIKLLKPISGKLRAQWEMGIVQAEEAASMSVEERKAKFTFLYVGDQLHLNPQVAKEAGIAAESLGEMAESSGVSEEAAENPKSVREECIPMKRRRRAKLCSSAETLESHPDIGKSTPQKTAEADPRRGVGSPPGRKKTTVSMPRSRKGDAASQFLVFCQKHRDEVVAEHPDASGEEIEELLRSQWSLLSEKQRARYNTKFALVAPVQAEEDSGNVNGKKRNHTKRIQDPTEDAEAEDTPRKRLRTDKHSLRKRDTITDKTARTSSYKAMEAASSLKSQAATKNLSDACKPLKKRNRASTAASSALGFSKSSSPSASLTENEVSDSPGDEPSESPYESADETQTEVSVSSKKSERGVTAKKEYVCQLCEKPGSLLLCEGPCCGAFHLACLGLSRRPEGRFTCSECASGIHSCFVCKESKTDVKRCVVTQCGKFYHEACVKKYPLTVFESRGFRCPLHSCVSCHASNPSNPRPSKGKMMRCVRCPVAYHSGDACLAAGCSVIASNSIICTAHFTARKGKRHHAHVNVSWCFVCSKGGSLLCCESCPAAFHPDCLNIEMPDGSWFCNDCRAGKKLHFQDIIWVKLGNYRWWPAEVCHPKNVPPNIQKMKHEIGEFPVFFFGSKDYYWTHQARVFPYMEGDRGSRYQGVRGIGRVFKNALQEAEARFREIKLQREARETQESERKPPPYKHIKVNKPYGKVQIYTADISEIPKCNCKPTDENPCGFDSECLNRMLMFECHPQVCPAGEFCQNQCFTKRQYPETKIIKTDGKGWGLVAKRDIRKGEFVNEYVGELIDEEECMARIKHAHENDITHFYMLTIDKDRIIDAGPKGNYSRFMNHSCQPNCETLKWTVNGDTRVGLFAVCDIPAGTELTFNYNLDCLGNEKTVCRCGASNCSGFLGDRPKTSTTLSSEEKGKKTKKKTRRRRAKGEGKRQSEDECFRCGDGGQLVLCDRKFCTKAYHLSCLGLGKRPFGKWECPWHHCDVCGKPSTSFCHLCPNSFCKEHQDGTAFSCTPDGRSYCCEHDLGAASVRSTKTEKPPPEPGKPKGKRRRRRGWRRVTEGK

Protein Tat = biological target: T3, Protein Tat (Human immunodeficiency virus type 1 group M subtype B (isolate HXB2)(HIV-1), UniProt P04608); format: functional;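 also: tat binding to TAR RNA read out by fluorescence polarization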
T3 sequence (P04608 whole entry): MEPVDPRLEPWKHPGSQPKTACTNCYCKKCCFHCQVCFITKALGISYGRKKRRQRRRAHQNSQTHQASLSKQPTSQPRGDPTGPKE

[6] = biological target: Eukaryotic translation initiation factor 4E (Mus musculus, UniProt P63073); experiment: eIF4E–eIF4G protein interaction inhibitors, dose response, biochemical, TR-FRET (AID 855); format: functional;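 also: potency for disrupting eIF4E binding to eIF4GI seen as loss of FRET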
[7] = human group III sPLA2 inhibitors, dose response, biochemical, QFRET, IC50 (AID 743457);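 also: green fluorescence rise as the enzyme cleaves BODIPY PC-A2 in liposomes; potency for inhibition of the enzyme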
[8] = cytotoxicity in OVCAR8 ovarian cancer cells, dose response, PAX8 project, cell-based, plate reader, dry powder samples (AID 743197); format: functional; settings: OVCAR-8
Paired box protein Pax-8 = Paired box protein Pax-8 (Homo sapiens, UniProt Q06710); experiment: inhibitors of PAX8-driven TPO luciferase reporter, dose response, RMG-I cells, cherry-pick (AID 687027); format: functional, cell-based;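 also: luciferase reporter driven by Pax8 target thyroperoxidase promoter measured by SteadyGlo luminescence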
Chain of Paired box protein Pax-8 (Q06710 whole entry): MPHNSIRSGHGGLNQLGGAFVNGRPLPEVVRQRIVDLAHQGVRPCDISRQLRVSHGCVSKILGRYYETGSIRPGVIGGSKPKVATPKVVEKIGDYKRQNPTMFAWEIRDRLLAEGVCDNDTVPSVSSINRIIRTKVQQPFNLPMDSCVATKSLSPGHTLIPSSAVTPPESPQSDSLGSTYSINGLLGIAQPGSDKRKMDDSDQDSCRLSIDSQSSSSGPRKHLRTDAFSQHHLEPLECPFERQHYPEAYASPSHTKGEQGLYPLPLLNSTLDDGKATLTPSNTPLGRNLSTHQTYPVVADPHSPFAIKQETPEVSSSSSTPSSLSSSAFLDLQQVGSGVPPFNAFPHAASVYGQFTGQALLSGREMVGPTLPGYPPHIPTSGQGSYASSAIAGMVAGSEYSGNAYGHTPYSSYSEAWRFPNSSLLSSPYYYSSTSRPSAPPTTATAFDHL

Chain of Eukaryotic translation initiation factor 4E (P63073 whole entry): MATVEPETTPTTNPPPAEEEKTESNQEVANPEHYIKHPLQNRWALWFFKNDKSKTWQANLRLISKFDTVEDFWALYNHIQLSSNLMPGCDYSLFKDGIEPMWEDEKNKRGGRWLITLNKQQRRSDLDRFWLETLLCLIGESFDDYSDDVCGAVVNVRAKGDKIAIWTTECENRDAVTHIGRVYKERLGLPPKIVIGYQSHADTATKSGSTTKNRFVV

For `O=C(O)c1ccc(/N=C/c2nc(-c3ccco3)oc2O)cc1`, the IC50 (Prothrombin) was > 50 µM (not active).

With `COc1ccccc1C#Cc1ccc([C@H]2[C@@H](C#N)N(C(=O)C3CC3)[C@H]2CO)cc1` the AC50 [1] was 0.692 µM (active), the AC50 [2] was 1.69 µM (active) and the AC50 [3] was 1.35 µM (active).

In the case of `CCOc1ccc(C(=O)Nc2ccc(N3CCN(C)CC3)cc2)cc1Br`, the IC50 (Bcl-2-like protein 10) was 0.558 µM (active), the IC50 (cells) was 31.4 µM (active) and the CC50 [4] was > 20 µM (active).

With `CCN1/C(=C/C(C)=C/c2sc3ccccc3[n+]2CC)Sc2ccccc21` the AC50 [5] was 7.11 µM (active).

For `COc1ccc(CCNC(=O)/C=C/c2ccco2)cc1`, the IC50 (Protein Tat) was > 100 µM (active).

In the case of `Cc1cc(O)c(/C=N/OCc2ccc(Cl)cc2Cl)c(=O)o1`, the IC50 [6] was 50 µM (inactive).

With `Cc1cccc(NC(S)=NNC(=O)c2ccc3c(c2)OCO3)c1` the IC50 [7] was > 122 µM (inactive).

With `O=c1cc(CCl)nc2sc3ccccc3n12` the IC50 [6] was 50 µM (inactive).

With `C[C@H]1CN([C@@H](C)CO)S(=O)(=O)c2ccc(-c3ccc(C#N)cc3)cc2O[C@@H]1CN(C)Cc1cccc(F)c1` the AC50 [8] was > 60 µM (inactive) and the AC50 (Paired box protein Pax-8) was 8.67 µM (active).

For `C/C(=N\NC(=S)Nc1ccc(C)cc1)c1cc2ccccc2o1.CN(C)C=O`, the IC50 [7] was 31.8 µM (inactive).

In the case of `CCN(CC)CCCNc1cc(C(F)(F)F)c(C#N)c2nc3ccccc3n12`, the AC50 [5] was > 20 µM (inactive).
